From ChEMBL document CHEMBL1157865, “Synthesis and evaluation of SQ109 analogues as potential anti-tuberculosis candidates” (2010)
Converted amounts (≈) assume the structure as drawn.

System: Mycobacterium tuberculosis
Test: Antimycobacterial activity against Mycobacterium tuberculosis H37Rv ATCC 25618 by BACTEC 460 radiometric method
Format: functional

Row | Compound | MIC
1 | CC(C)=CCC/C(C)=C/CC/C(C)=C/CNCCNC1C2CC3CC(C2)CC1C3 (stereo unspecified) | 0.25 µM (≈ 0.0997 µg/mL)
2 | CC(C)CCCC(C)CCNCCNC1C2CC3CC(C2)CC1C3 (stereo unspecified) | 1 µM (≈ 0.335 µg/mL)
3 | CC(C)CCCC(C)CCCC(C)CCNCCNC1C2CC3CC(C2)CC1C3 (stereo unspecified) | 0.5 µM (≈ 0.202 µg/mL)
4 | CC(C)=CCC/C(C)=C\CNCCNC12CC3CC(CC(C3)C1)C2 | 1 µM (≈ 0.331 µg/mL)
5 | CC(C)CCCC(C)CCNCCNC12CC3CC(CC(C3)C1)C2 (stereo unspecified) | 0.5 µM (≈ 0.167 µg/mL)
6 | CC(C)=CCC/C(C)=C/CNCCNC1C2CC3CC(C2)CC1C3 (stereo unspecified) [SQ109] | 0.5 µM (≈ 0.165 µg/mL)
